Measurements: the Kinase Knowledgebase extract (Sharma et al. 2016)

target: EGFR (UniProt P00533); conditions: not given
Sequence (P00533 whole entry, looked up): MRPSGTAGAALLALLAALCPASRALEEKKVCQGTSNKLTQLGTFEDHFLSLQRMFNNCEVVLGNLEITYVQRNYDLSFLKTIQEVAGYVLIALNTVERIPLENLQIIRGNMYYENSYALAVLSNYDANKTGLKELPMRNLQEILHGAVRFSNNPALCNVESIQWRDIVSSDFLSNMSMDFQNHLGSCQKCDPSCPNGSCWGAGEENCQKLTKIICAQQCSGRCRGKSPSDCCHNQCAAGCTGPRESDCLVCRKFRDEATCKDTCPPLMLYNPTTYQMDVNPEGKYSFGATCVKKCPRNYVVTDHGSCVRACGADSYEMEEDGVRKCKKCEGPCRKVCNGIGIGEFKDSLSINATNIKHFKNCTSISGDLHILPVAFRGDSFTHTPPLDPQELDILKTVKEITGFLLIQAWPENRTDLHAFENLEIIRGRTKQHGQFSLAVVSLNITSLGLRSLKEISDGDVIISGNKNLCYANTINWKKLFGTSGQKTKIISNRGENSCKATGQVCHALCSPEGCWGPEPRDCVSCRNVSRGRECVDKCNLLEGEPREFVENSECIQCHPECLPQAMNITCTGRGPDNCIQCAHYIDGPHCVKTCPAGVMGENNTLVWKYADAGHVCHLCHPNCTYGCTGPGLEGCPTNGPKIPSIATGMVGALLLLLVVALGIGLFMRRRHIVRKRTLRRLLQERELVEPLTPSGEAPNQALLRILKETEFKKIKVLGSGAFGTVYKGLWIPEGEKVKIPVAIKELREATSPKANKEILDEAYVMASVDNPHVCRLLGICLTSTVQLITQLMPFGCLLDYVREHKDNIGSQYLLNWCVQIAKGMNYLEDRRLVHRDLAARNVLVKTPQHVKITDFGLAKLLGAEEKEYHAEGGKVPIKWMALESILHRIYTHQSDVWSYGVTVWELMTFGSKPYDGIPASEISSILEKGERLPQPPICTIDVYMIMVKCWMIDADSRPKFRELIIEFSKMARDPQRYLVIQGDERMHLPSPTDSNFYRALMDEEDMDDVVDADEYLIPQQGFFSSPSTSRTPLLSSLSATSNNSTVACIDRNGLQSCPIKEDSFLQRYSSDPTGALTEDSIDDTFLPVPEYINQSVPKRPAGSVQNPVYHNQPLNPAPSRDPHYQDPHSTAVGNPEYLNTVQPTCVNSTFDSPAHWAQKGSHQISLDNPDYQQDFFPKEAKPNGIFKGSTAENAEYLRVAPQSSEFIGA

| Compound | IC50 [µM] |
| --- | --- |
| COc1cc(/C=C(\C#N)C(=O)c2ccc(C)cc2)cc(CSCc2ccccc2)c1O | 4.5 |

target: EGFR (human) (UniProt P00533); conditions: her 14
Sequence (P00533 whole entry, looked up): as above

| Compound | IC50 [µM] |
| --- | --- |
| COc1cc(/C=C(\C#N)C(N)=O)cc(CSCc2ccc(Cl)cc2)c1O | 20 |
| COc1cc(C=C(C#N)C#N)cc(CS(=O)(=O)c2ccc(C)cc2)c1O | 15 |
| COc1cc(/C=C(\C#N)C(=O)c2ccc(O)c(O)c2)cc(CSCc2ccccc2)c1O | 2 |
| COc1cc(/C=C(\C#N)C(N)=O)cc(CSc2ccc(O)cc2)c1O | 2 |
| COc1cc(/C=C(\C#N)C(N)=O)cc(CSc2nc3ccccc3o2)c1O | 6 |
| COc1cc(C=C(C#N)C#N)cc(CSc2ccccc2C(=O)O)c1O | > 50 |
| COc1cc(/C=C(\C#N)C(N)=O)cc(CSCc2ccccc2)c1O | 12.5 |
| COc1cc(/C=C(\C#N)C(N)=O)cc(CSc2ccccn2)c1O | 16 |
| COc1cc(/C=C(\C#N)C(N)=O)cc(CSc2ccc3ccccc3c2)c1O | 10 |
| COc1cc(/C=C(\C#N)C(N)=O)cc(CSc2ccccc2NC(C)=O)c1O | 9 |
| COc1cc(/C=C(\C#N)C(N)=O)cc(CSc2ccccc2)c1O | 12.5 |
| COc1cc(/C=C(\C#N)C(N)=O)cc(CSc2nc3ccccc3[nH]2)c1O | 35 |
| COc1cc(C=C(C#N)C#N)cc(CSCC(=O)O)c1O | > 50 |
| N#C/C(=C\c1cc(O)c(O)c(CSCc2ccccc2)c1)C(N)=O | 3 |
| COc1cc(/C=C(\C#N)C(N)=O)cc(CSc2ccccc2C(=O)O)c1O | > 50 |
| N#C/C(=C\c1cc(O)c(O)c(CSc2nc3ccccc3s2)c1)C(N)=O | > 50 |
| COc1cc(C=C(C#N)C#N)cc(CSc2ccccc2)c1O | 6 |
| COc1cc(/C=C(\C#N)C(N)=O)cc(CSCc2ccccc2Cl)c1O | 10 |
| Cc1cc(C=C(C#N)C#N)cc(O)c1O | 13 |
